Here are results for 18 compounds from patent US5633144A, “Assay pad and method for determination of the presence of total coliforms” (priority 1994, dated 1997).

Where two headings read alike, the source gives them in different places.

A short description of data set [1]: Stability of beta-galactosidase in freeze-dried cells. Format: physicochemical, E. coli EW1b. The method, then: A. Preparation of freeze-dried cells
1. Stock cultures of E. coli EW1b are stored in 40% glycerol solution at -14° C. to -20° C.
2. Fifty μL of the stock culture are inoculated into 5 ml of LB-lactose medium (Bacto-tryptone: 1%; yeast extract: 0.5%; NaCl: 1.0%; K2 HPO4 : 0.15%; Lactose: 1%).
3. Cells are grown overnight at 35° C. The bacterial suspension is then diluted with 20 ml of fresh medium, amended with 1 ml of 0.2% (w/v) solution of isopropyl-beta-thiogalactoside (IPTG) and then allowed to grow to absorbance A550 =0.4-0.5.
4. Cells are centrifuged at 8000 RPM for 10 minutes.
5. The pellet is resuspended in distilled water.
6. The suspension is centrifuged for 10 minutes at 8000 RPM.
7. The suspension is resuspended in 2% trehalose to obtain an absorbance of A550 =0.2-0.25 (if using the MUGA pads for enzyme assay, an absorbance of A550 =0.10 is sufficient).
8. This suspension is dispensed in 3 ml aliquots in serum bottles.
9. The cells are frozen overnight at -40° C.
10. The frozen cells are freeze-dried for 24 hours and stored at subzero or at refrigerator temperature until used. […] Moreover, the enzyme was stable for at least 18 hours at 35° C.

For data set [2], the target named is T1, beta-galactosidase (Escherichia coli, UniProt P00722).
T1 construct: one convenient source of beta-galactosidase is bacteria which produce this enzyme in useful amounts; endogenous in cells; host or cells: E. coli EW1b (Coli Genetic Stock Culture, Yale University), IPTG-induced, freeze-dried in trehalose, rehydrated
T1 sequence (P00722 2-1024): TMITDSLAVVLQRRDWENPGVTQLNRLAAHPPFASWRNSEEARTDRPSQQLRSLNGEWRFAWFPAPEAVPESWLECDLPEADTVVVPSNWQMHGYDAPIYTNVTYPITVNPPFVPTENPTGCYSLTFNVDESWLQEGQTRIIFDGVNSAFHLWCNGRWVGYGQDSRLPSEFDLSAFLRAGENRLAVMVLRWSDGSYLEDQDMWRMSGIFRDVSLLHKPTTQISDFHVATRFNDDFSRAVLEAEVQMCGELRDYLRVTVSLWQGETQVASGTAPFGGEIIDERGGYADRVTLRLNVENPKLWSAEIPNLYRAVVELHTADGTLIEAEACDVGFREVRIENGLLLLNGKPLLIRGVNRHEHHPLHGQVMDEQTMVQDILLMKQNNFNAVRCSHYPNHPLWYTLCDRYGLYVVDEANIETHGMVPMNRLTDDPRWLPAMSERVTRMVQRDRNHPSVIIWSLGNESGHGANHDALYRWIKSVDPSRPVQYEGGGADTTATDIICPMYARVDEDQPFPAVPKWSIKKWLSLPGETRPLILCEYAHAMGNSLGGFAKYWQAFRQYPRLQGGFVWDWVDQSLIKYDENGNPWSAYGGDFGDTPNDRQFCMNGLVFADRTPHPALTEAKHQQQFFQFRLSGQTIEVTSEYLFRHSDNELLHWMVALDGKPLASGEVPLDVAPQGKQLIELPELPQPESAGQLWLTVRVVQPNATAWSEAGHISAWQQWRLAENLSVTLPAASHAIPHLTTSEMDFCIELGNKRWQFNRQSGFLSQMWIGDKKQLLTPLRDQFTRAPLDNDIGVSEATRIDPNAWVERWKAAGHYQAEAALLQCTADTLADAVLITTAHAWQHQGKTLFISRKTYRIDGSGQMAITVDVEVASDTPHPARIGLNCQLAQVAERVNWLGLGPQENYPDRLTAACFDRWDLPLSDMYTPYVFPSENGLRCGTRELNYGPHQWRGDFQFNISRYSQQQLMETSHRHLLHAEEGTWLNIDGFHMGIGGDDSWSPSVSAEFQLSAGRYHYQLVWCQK
Format: biochemical, E. coli EW1b.

The target of data set [3] is T1, beta-galactosidase. Type of data set: biochemical, E. coli EW1b. This is another data set of the same source.
The target in data set [4] is T1, beta-galactosidase. Type of data set: biochemical, E. coli EW1b. More on the design: key: +++++: maximum color intensity; -: complete enzyme inactivation.
A short description of data set [5]: Solubility and storage stability of CPRG. Conditions: 50 mM K-phosphate buffer containing 1 mM MgCl2, pH 7.5, 4° C. Type of data set: physicochemical. The method, then: CPRG was dissolved in 50 mM K-phosphate buffer containing 1 mM MgCl2. […] When the beta-galactosidase catalzyed hydrolysis of CPRG occurs, the resulting product on the MetPAD™ is purple and, thus, is easily detected visibly.

The conditions of data set [6]: cited from earlier work.
The subject of the next data set is E. coli EW1b cells. Nature of the data set: Enhancement of beta-galactosidase production by inducer. Type of data set: cell-based. Conditions: E. coli EW1b cells treated with inducer. From the text:
As described above, one convenient source of beta-galactosidase is bacteria which produce this enzyme in useful amounts. Advantageously, the enzyme produced by the bacteria is readily accessible to the heavy metal and the substrate. […] Among the bacteria investigated by the applicants are E. coli C3000, E. coli EW1b, and a mixed culture of beta-galactosidase producers isolated from wastewater. E. coli C3000 is available from the American Type Culture Collection (ATCC), 12301 Parklawn Drive, Rockville, Md. 20852 USA. The culture has been assigned the accession number ATCC 15597 by the repository. E. coli EW1b is available from the Coli Genetic Stock Culture, Yale University, New Haven, Conn. The mixed culture was obtained following inoculation of LB-lactose-SDS broth with activated sludge effluent. Although these bacteria would perform well in the assay of the subject invention, E. coli C3000 was not as sensitive to heavy metal toxicity as E. coli EW1b or the mixture of beta-galactosidase producing bacteria. Moreover, due to potential problems in maintaining a mixed culture of bacteria, E. coli EW1b is the preferred microbe. […]
3. […] The bacterial suspension is then diluted with 20 ml of fresh medium, amended with 1 ml of 0.2% (w/v) solution of isopropyl-beta-thiogalactoside (IPTG) and then allowed to grow to absorbance A550 =0.4-0.5.

Data set [7] relates to beta-galactosidase of E. coli EW1b. Format: biochemical. Conditions: for Color intensity, trehalose medium: freeze-dried in trehalose medium (22.4% w/v); for Color intensity, distilled water: freeze-dried in distilled water.
Where [8] appears, read: 400 ppm, maximum concentration tested at which no inhibition was observed.

Regarding “beta-galactosidase: enzyme of freeze-dried E. coli EW1b cells”, in data set [1] (4° C.), the “stability of beta-galactosidase activity of freeze-dried cells” value is on record as “stable for several weeks”. Also, in data set [1] (35° C.), the “stability of the enzyme” value is reported as “at least 18 hours”.

In the case of Chromium [Cr (K2 Cr2 O7)], on beta-galactosidase [2], the “MIC (Minimum Inhibitory Concentration)” value was 25.0 µg/mL and the “Total inactivation (toxicant concentration which causes 100% inhibition of enzyme activity)” value turned out to be 50.0 mg/L. Also, on beta-galactosidase [3], the “Minimum inhibitory concentration (MIC), CPRG pads” value turned out to be 25.00 µg/mL and the “Minimum inhibitory concentration (MIC), fluorescent pads” value was found to be 25.00 µg/mL.

For the compound `Cn1cc(-c2ccccc2)c(=O)c(-c2cccc(C(F)(F)F)c2)c1` [Sonar (Fluoridone), Fluoridone], at beta-galactosidase [4] (setting [8]), the Color intensity entry was “+++++”.

Regarding `C=O` [Formaldehyde], the Color intensity entry at beta-galactosidase [4] (925 ppm, buffered to pH = 7.0 with K-phosphate buffer) is listed as “+++++”.

Turning to `O=S1(=O)OC(c2ccc(O)c(Cl)c2)(c2ccc(O[C@@H]3O[C@H](CO)[C@H](O)[C@H](O)[C@H]3O)c(Cl)c2)c2ccccc21` (stereo partly drawn) [CPRG, chlorophenol red-beta-D-galactopyranoside], the “stability of CPRG solution” value in data set [5] was “stable at 4 °C for one week”. Moreover, in data set [6], the solubility result is given as “more than 50 mmol/L”. The stability result in data set [6] (must be protected from light) was “stable at -20 °C”.

As to `CC(C)S[C@@H]1O[C@H](CO)[C@H](O)[C@H](O)[C@H]1O` [IPTG, isopropyl-beta-thiogalactoside], the beta-galactosidase production entry with E. coli EW1b cells is listed as “beta-galactosidase production could be enhanced”.

As for `O=[N+]([O-])[O-].O=[N+]([O-])[O-].[Pb+2]` [Lead (Pb(NO3)2), Lead], the “MIC (Minimum Inhibitory Concentration)” value on beta-galactosidase [2] (MetPAD) worked out at 5.0 µg/mL. Also, at beta-galactosidase [2] (MetPAD), the “Total inactivation (toxicant concentration which causes 100% inhibition of enzyme activity)” value came to 15.0 mg/L. For the same compound, the results for the “Color intensity, trehalose medium” value in data set [7] (3.0 ppm), in data set [7] (15.0 ppm) and in data set [7] (20.0 ppm) were “+++++”, “-” and “-”, respectively. For the same compound, at beta-galactosidase [3] (CPRG pads), the “Minimum inhibitory concentration (MIC), CPRG pads” value was found to be 5.00 µg/mL. The “Minimum inhibitory concentration (MIC), fluorescent pads” value at beta-galactosidase [3] (Fluorescent (MUGA) pads) came to 2.50 µg/mL.

For the compound `Oc1c(Cl)c(Cl)c(Cl)c(Cl)c1Cl` [Pentachlorophenol], the Color intensity result at beta-galactosidase [4] (setting [8]) is on record as “+++++”.

With `Cl[C@H]1[C@H](Cl)[C@@H](Cl)[C@@H](Cl)[C@H](Cl)[C@H]1Cl` [Lindane], the Color intensity result on beta-galactosidase [4] (500 ppm) was “+++++”.

As to `O.O.O.O.O.O=S(=O)([O-])[O-].[Cu+2]` [Copper (CuSO4.5H2 O), Copper], the “MIC (Minimum Inhibitory Concentration)” value on beta-galactosidase [2] (MetPAD) was 0.5 µg/mL. Further, the “Total inactivation (toxicant concentration which causes 100% inhibition of enzyme activity)” value at beta-galactosidase [2] (MetPAD) is listed as 1.0 mg/L. Besides, the “Color intensity, distilled water” value in data set [7] (0.5 ppm), in data set [7] (0.8 ppm), in data set [7] (1.0 ppm) and in data set [7] (1.5 ppm) was “+++++” each time. In addition, the “Color intensity, trehalose medium” value in data set [7] (1.0 ppm) and in data set [7] (1.5 ppm) was “-” each time. Also, the “Minimum inhibitory concentration (MIC), CPRG pads” value at beta-galactosidase [3] (CPRG pads) came to 0.50 µg/mL. Moreover, on beta-galactosidase [3] (Fluorescent (MUGA) pads), the “Minimum inhibitory concentration (MIC), fluorescent pads” value worked out at 0.25 µg/mL.

Take `O.O.O.O.O.O.O=S(=O)([O-])[O-].[Ni+2]` [Ni (NiSO4.6H2 O), Nickel]: on beta-galactosidase [2] (MetPAD), the “MIC (Minimum Inhibitory Concentration)” value was 8.0 µg/mL and the “Total inactivation (toxicant concentration which causes 100% inhibition of enzyme activity)” value turned out to be 20.0 mg/L. The “Minimum inhibitory concentration (MIC), CPRG pads” value on beta-galactosidase [3] (CPRG pads) is 8.00 µg/mL. Also, the “Minimum inhibitory concentration (MIC), fluorescent pads” value at beta-galactosidase [3] (Fluorescent (MUGA) pads) came to 5.00 µg/mL.

Take `ClC(Cl)Cl` [Chloroform]: the Color intensity entry at beta-galactosidase [4] (3250 ppm) is given as “+++++”.

For `O=[N+]([O-])c1ccc(O)cc1` [p-nitrophenol], the Color intensity entry at beta-galactosidase [4] (110 ppm) is “+++++”.

As for `Oc1ccccc1` [Phenol], the Color intensity entry on beta-galactosidase [4] (3000 ppm) was “+++++”.

Regarding `CCCCCCCCCCCCOS(=O)(=O)[O-].[Na+]` [Sodium dodecyl sulfate], on beta-galactosidase [4] (3000 ppm), the Color intensity result is listed as “+++++”.

With `O=S(=O)([O-])[O-].[Zn+2]` [Zinc (ZnSO4), Zinc], the “MIC (Minimum Inhibitory Concentration)” value on beta-galactosidase [2] (MetPAD) is 0.5 to 1 µg/mL. The “Total inactivation (toxicant concentration which causes 100% inhibition of enzyme activity)” value on beta-galactosidase [2] (MetPAD) was found to be 3.0 mg/L. Further, the “Color intensity, distilled water” value in data set [7] (0.5 ppm) was “+++++”; in data set [7] (1.0 ppm), “+++++”; in data set [7] (10.0 ppm) it was “-”. In addition, the “Color intensity, trehalose medium” value is given as “+++++” in data set [7] (0.5 ppm); “-” in data set [7] (3.0 ppm); “-” in data set [7] (5.0 ppm); “-” in data set [7] (7.5 ppm); “-” in data set [7] (10.0 ppm). Besides, the “Minimum inhibitory concentration (MIC), CPRG pads” value at beta-galactosidase [3] (CPRG pads) fell in the range of 0.5 to 1.00 µg/mL. The “Minimum inhibitory concentration (MIC), fluorescent pads” value at beta-galactosidase [3] (Fluorescent (MUGA) pads) was 0.50 µg/mL.

In the case of `O=S(=O)([O-])[O-].[Cd+2]` [Cadmium (CdSO4), Cadmium], the “MIC (Minimum Inhibitory Concentration)” value on beta-galactosidase [2] (MetPAD) is 0.2 µg/mL. Moreover, the “Total inactivation (toxicant concentration which causes 100% inhibition of enzyme activity)” value on beta-galactosidase [2] (MetPAD) was found to be 1.0 mg/L. Also, the “heavy metal toxicity, response of MetPAD (in words)” value at beta-galactosidase [2] (MetPAD, 7 heavy metals) is “most toxic among the metals tested”. The “Color intensity, trehalose medium” value in data set [7] (1.0 ppm) and in data set [7] (1.5 ppm) was “-” in each case. The “Minimum inhibitory concentration (MIC), CPRG pads” value at beta-galactosidase [3] (CPRG pads) turned out to be 0.30 µg/mL. Also, on beta-galactosidase [3] (Fluorescent (MUGA) pads), the “Minimum inhibitory concentration (MIC), fluorescent pads” value was determined as 0.30 µg/mL.

Consider Mercury [Mercury (HgSO4)], for which the “MIC (Minimum Inhibitory Concentration)” value on beta-galactosidase [2] (MetPAD) worked out at 0.5 µg/mL. The “Total inactivation (toxicant concentration which causes 100% inhibition of enzyme activity)” value at beta-galactosidase [2] (MetPAD) worked out at 1.0 mg/L. The “Color intensity, distilled water” value in data set [7] (0.5 ppm), in data set [7] (1.0 ppm) and in data set [7] (1.5 ppm) was “+++++” throughout. The “Color intensity, trehalose medium” value in data set [7] (1.0 ppm), in data set [7] (1.5 ppm) and in data set [7] (2.0 ppm) was “-” throughout. For the same compound, the “Minimum inhibitory concentration (MIC), CPRG pads” value at beta-galactosidase [3] (CPRG pads) came out at 0.25 µg/mL. Moreover, on beta-galactosidase [3] (Fluorescent (MUGA) pads), the “Minimum inhibitory concentration (MIC), fluorescent pads” value came out at 0.25 µg/mL.
